Here are results for 2 molecules from patent US4764508A, “Complexes of flavanolignans with phospholipids, preparation thereof and associated pharmaceutical compositions” (Inverni Della Beffa S.p.A., priority 1985, dated 1988).

For series [1] the following is noted: in vivo, po.
Series [2] deals with liver poisoning with carbon tetrachloride. The series is described as follows: Anti-hepatotoxic activity of silybin and of 1:1 silybin-phosphatidylcholine complex in the rat, after poisoning with carbon tetrachloride. It counts as in vivo. The note with it: oral; for reduction in GOT and GPT (in words): carbon tetrachloride, equimolecular doses; for GOT: poisoned controls 339.40 ± 59.07; for GOT, % change (in brackets) / GPT, % change (in brackets): versus poisoned controls.

For series [3] the following is noted: conclusion from literature reports; cited from earlier work.
Series [4] is described as follows: Solubility in chloroform, ethyl ether or benzene.
The nature of series [5]: Pharmacokinetic comparison between equimolar doses of silybin and of 1:1 silybin-phosphatidylcholine complex in the rat, after oral administration.
The nature of series [6]: Pharmacokinetic comparison between equimolar doses of silybin and of 1:1 silybin:phosphatidylcholine complex in man, oral administration. The note with it: 0.00 = below sensitivity of the method (35 ng/ml).
Where [7] appears, read: silybin 25 mg/kg, complex 65.8 mg/kg (equivalent to 25 mg silybin), poisoned controls 145.40 ± 31.43.
Setting [8] is: silybin 25 mg/kg, complex 65.8 mg/kg (equivalent to 25 mg silybin).
Setting [9] is: silybin 25 mg/kg, complex 65.8 mg/kg.
[10] abbreviates: silybin 250 mg/kg (P < .05), complex 658 mg/kg (equivalent to 250 mg silybin; P < .01).
[11] abbreviates: silybin 250 mg/kg, complex 658 mg/kg (equivalent to 250 mg silybin), poisoned controls 145.40 ± 31.43, °° P < .01.
[12] abbreviates: silybin 250 mg/kg, complex 658 mg/kg.

Turning to “1:1 Silybin/soy phosphatidylcholine complex [1:1 silybin-phosphatidylcholine complex]”, the “absorption in the rat (in words)” value in series [1] is on record as “markedly in favour of the complexed form”. Further, the “reduction in GOT and GPT (in words)” value in series [2] is given as “significant reduction”. The GPT in series [2] (setting [7]) stood at 65.90 U/L; in series [2] (setting [11]) it was 46.90 U/L. Also, the figures for the GOT in series [2] (setting [8]) and in series [2] (setting [10]) were 181.80 U/L and 148.10 U/L, respectively. Moreover, the figures for the “GOT, % change (in brackets)” value in series [2] (setting [9]) and in series [2] (setting [12]) were -46.4% and -56.4%, respectively. The “GPT, % change (in brackets)” value in series [2] (setting [9]) is given as -54.7%; in series [2] (setting [12]), -67.8%.
In the case of `COc1cc(C2Oc3cc([C@H]4Oc5cc(O)cc(O)c5C(=O)[C@@H]4O)ccc3OC2CO)ccc1O` (stereo partly drawn) [Silybin, silybin], in series [3], the “oral bioavailability (in words)” value is on record as “does not have really high or adequate bioavailability”. Besides, the “solubility in chloroform, ethyl ether or benzene” value in series [4] is recorded as “insoluble”. Also, in series [5] (in vivo, po, 200 mg/kg), the concentration at 0.25 h turned out to be 70 ng/mL. Moreover, in series [5] (in vivo, po, 200 mg/kg), the concentration at 0.5 h was found to be 60 ng/mL. This molecule also displayed a concentration at 1 h in series [5] (in vivo, po, 200 mg/kg) of 110 ng/mL. Besides, the concentration at 2 h in series [5] (in vivo, po, 200 mg/kg) stood at 50 ng/mL. The molecule also showed a concentration at 3 h in series [5] (in vivo, po, 200 mg/kg) of 50 ng/mL. Moreover, the “concentration at sampling time 4.00 h” value is 0 ng/mL in series [5] (oral, complex 520 mg/kg (equivalent to 200 mg/kg silybin), silybin 200 mg/kg, 4.00 h, 0.00 = nondeterminable, below limit of 0.05 mcg/ml) and 0.00 ng/mL in series [6] (complex 700, silybin 270, 4.00 h). The “concentration at sampling time 6.00 h” value in series [5] (oral, complex 520 mg/kg (equivalent to 200 mg/kg silybin), silybin 200 mg/kg, 6.00 h, 0.00 = nondeterminable, below limit of 0.05 mcg/ml) turned out to be 0 ng/mL; in series [6] (complex 700, silybin 270, 6.00 h) it was 0.00 ng/mL. For the same molecule, the “concentration at sampling time 0.25 h” value in series [6] (complex 700, silybin 270, 0.25 h) was 0.00 ng/mL. Further, the “concentration at sampling time 0.50 h” value in series [6] (complex 700, silybin 270, 0.50 h) turned out to be 0.00 ng/mL. Moreover, the “concentration at sampling time 1.00 h” value in series [6] (complex 700, silybin 270, 1.00 h) worked out at 0.00 ng/mL. Further, the “concentration at sampling time 2.00 h” value in series [6] (complex 700, silybin 270, 2.00 h) came out at 0.00 ng/mL. In addition, the “concentration at sampling time 3.00 h” value in series [6] (complex 700, silybin 270, 3.00 h) came out at 0.00 ng/mL. In addition, the “concentration at sampling time 8.00 h” value in series [6] (complex 700, silybin 270, 8.00 h) amounted to 0.00 ng/mL. Besides, the “reduction in GOT and GPT (in words)” value in series [2] is “only a slight reduction”. In addition, the GPT came to 94.30 U/L in series [2] (setting [7]) and 94.90 U/L in series [2] (setting [11]). The GOT in series [2] (setting [8]) was 252.60 U/L; in series [2] (setting [10]) it was 200.00 U/L. In addition, the results for the “GOT, % change (in brackets)” value in series [2] (setting [9]) and in series [2] (setting [12]) were -25.6% and -41.1%, respectively. In addition, the results for the “GPT, % change (in brackets)” value in series [2] (setting [9]) and in series [2] (setting [12]) were -35.2% and -34.8%, respectively.
